# Results published in PubChem BioAssay AID2060497 (Molecular Pharmacology Branch, DTP, NCI, 2025).
# Tested on: 317291-083-R-J1-PDC complex spheroids, viability
# Experiment: Anticancer human tumor 317291-083-R-J1-PDC patient-derived soft tissue sarcoma cell line growth inhibition [GQUAD]
# Conditions: for IC50: curve of first compound; for viability, T/C: stronger effect = lower value
# How it was run: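 Viability of tumor cells grown as complex spheroids with endothelial and stromal cells, exposed to drug combinations. Top concentration at or near clinical Cmax (else 10 microM), diluted in half-log increments.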
# [1] = second compound 0.0316 µM, first compound 0.0316 µM
# [2] = second compound 0.0316 µM, first compound 0.1 µM
# [3] = second compound 0.0316 µM, first compound 0.316 µM
# [4] = second compound 0.0316 µM, first compound 1 µM
# [5] = second compound 0.0316 µM, first compound 3.16 µM
# [6] = second compound 0.0316 µM, first compound 10 µM
# [7] = second compound 0.1 µM, first compound 0.0316 µM
# [8] = second compound 0.1 µM, first compound 0.1 µM
# [9] = second compound 0.1 µM, first compound 0.316 µM
# [10] = second compound 0.1 µM, first compound 1 µM
# [11] = second compound 0.1 µM, first compound 3.16 µM
# [12] = second compound 0.1 µM, first compound 10 µM
# [13] = second compound 0.316 µM, first compound 0.0316 µM
# [14] = second compound 0.316 µM, first compound 0.1 µM
# [15] = second compound 0.316 µM, first compound 0.316 µM
# [16] = second compound 0.316 µM, first compound 1 µM
# [17] = second compound 0.316 µM, first compound 3.16 µM
# [18] = second compound 0.316 µM, first compound 10 µM
# [19] = second compound 1 µM, first compound 0.0316 µM
# [20] = second compound 1 µM, first compound 0.1 µM
# [21] = second compound 1 µM, first compound 0.316 µM
# [22] = second compound 1 µM, first compound 1 µM
# [23] = second compound 1 µM, first compound 3.16 µM
# [24] = second compound 1 µM, first compound 10 µM
# [25] = second compound 3.16 µM, first compound 0.0316 µM
# [26] = second compound 3.16 µM, first compound 0.1 µM
# [27] = second compound 3.16 µM, first compound 0.316 µM
# [28] = second compound 3.16 µM, first compound 1 µM
# [29] = second compound 3.16 µM, first compound 3.16 µM
# [30] = second compound 3.16 µM, first compound 10 µM
# [31] = second compound 10 µM, first compound 0.0316 µM
# [32] = second compound 10 µM, first compound 0.1 µM
# [33] = second compound 10 µM, first compound 0.316 µM
# [34] = second compound 10 µM, first compound 1 µM
# [35] = second compound 10 µM, first compound 3.16 µM
# [36] = second compound 10 µM, first compound 10 µM
# [37] = second compound 0.0316 µM, first compound 0.000999 µM
# [38] = second compound 0.0316 µM, first compound 0.00316 µM
# [39] = second compound 0.0316 µM, first compound 0.00999 µM
# [40] = second compound 0.0316 µM, first compound 0.0999 µM
# [41] = second compound 0.1 µM, first compound 0.000999 µM
# [42] = second compound 0.1 µM, first compound 0.00316 µM
# [43] = second compound 0.1 µM, first compound 0.00999 µM
# [44] = second compound 0.1 µM, first compound 0.0999 µM
# [45] = second compound 0.316 µM, first compound 0.000999 µM
# [46] = second compound 0.316 µM, first compound 0.00316 µM
# [47] = second compound 0.316 µM, first compound 0.00999 µM
# [48] = second compound 0.316 µM, first compound 0.0999 µM
# [49] = second compound 1 µM, first compound 0.000999 µM
# [50] = second compound 1 µM, first compound 0.00316 µM
# [51] = second compound 1 µM, first compound 0.00999 µM
# [52] = second compound 1 µM, first compound 0.0999 µM
# [53] = second compound 3.16 µM, first compound 0.000999 µM
# [54] = second compound 3.16 µM, first compound 0.00316 µM
# [55] = second compound 3.16 µM, first compound 0.00999 µM
# [56] = second compound 3.16 µM, first compound 0.0999 µM
# [57] = second compound 10 µM, first compound 0.000999 µM
# [58] = second compound 10 µM, first compound 0.00316 µM
# [59] = second compound 10 µM, first compound 0.00999 µM
# [60] = second compound 10 µM, first compound 0.0999 µM
# 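Also: spheroids exposed to compounds for one week before readout.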
# 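For viability, T/C in this document: percent viability relative to DMSO vehicle wells taken as 100%.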
structure (smiles),measurement,setting,value
CC1COCCN1c1cc(-c2ccnn2C)c2ccnc(-c3ccn[nH]3)c2n1 (stereo not drawn) + Cc1cnc(CNC(=O)c2c(=O)c3ccc(N4CCCN(C)CC4)nc3n3c2sc2ccccc23)cn1,IC50,second compound 0.0316 µM,< 31.6 nM
same,IC50,second compound 0.1 µM,39.5 nM
same,IC50,second compound 0.316 µM,< 31.6 nM
same,IC50,second compound 1 µM,< 31.6 nM
same,IC50,second compound 3.16 µM,< 31.6 nM
same,IC50,second compound 10 µM,< 31.6 nM
same,"viability, T/C",[1],49.6%
same,"viability, T/C",[2],19.1%
same,"viability, T/C",[3],13%
same,"viability, T/C",[4],10.9%
same,"viability, T/C",[5],23.9%
same,"viability, T/C",[6],12.7%
same,"viability, T/C",[7],59%
same,"viability, T/C",[8],12.5%
same,"viability, T/C",[9],9.96%
same,"viability, T/C",[10],15.6%
same,"viability, T/C",[11],11.6%
same,"viability, T/C",[12],11.4%
same,"viability, T/C",[13],35.6%
same,"viability, T/C",[14],14.6%
same,"viability, T/C",[15],12.3%
same,"viability, T/C",[16],11%
same,"viability, T/C",[17],13.2%
same,"viability, T/C",[18],16.6%
same,"viability, T/C",[19],25.1%
same,"viability, T/C",[20],25.1%
same,"viability, T/C",[21],11.3%
same,"viability, T/C",[22],9.59%
same,"viability, T/C",[23],20.1%
same,"viability, T/C",[24],11.5%
same,"viability, T/C",[25],11.3%
same,"viability, T/C",[26],8.19%
same,"viability, T/C",[27],9.69%
same,"viability, T/C",[28],12.1%
same,"viability, T/C",[29],17.1%
same,"viability, T/C",[30],11.5%
same,"viability, T/C",[31],11.8%
same,"viability, T/C",[32],11.6%
same,"viability, T/C",[33],13.7%
same,"viability, T/C",[34],8.98%
same,"viability, T/C",[35],11.4%
same,"viability, T/C",[36],18.6%
Cc1cccc(N(C)C(=O)C2C(O)CCN2c2nc(C)cc(C(F)(F)F)c2C#N)c1 (stereo not drawn) + Cc1[nH]c2ccc(F)cc2c1-c1nc2c3cccnc3c3ncccc3c2[nH]1,IC50,second compound 0.0316 µM,> 10000 nM
same,IC50,second compound 0.1 µM,> 10000 nM
same,IC50,second compound 0.316 µM,> 10000 nM
same,IC50,second compound 1 µM,> 10000 nM
same,IC50,second compound 3.16 µM,> 10000 nM
same,IC50,second compound 10 µM,> 10000 nM
same,"viability, T/C",[1],112%
same,"viability, T/C",[2],113%
same,"viability, T/C",[3],105%
same,"viability, T/C",[4],120%
same,"viability, T/C",[5],100%
same,"viability, T/C",[6],91.9%
same,"viability, T/C",[7],117%
same,"viability, T/C",[8],95.1%
same,"viability, T/C",[9],118%
same,"viability, T/C",[10],104%
same,"viability, T/C",[11],121%
same,"viability, T/C",[12],87.7%
same,"viability, T/C",[13],102%
same,"viability, T/C",[14],111%
same,"viability, T/C",[15],102%
same,"viability, T/C",[16],113%
same,"viability, T/C",[17],121%
same,"viability, T/C",[18],93.4%
same,"viability, T/C",[19],126%
same,"viability, T/C",[20],112%
same,"viability, T/C",[21],121%
same,"viability, T/C",[22],111%
same,"viability, T/C",[23],102%
same,"viability, T/C",[24],86.7%
same,"viability, T/C",[25],111%
same,"viability, T/C",[26],113%
same,"viability, T/C",[27],107%
same,"viability, T/C",[28],110%
same,"viability, T/C",[29],111%
same,"viability, T/C",[30],69%
same,"viability, T/C",[31],95.1%
same,"viability, T/C",[32],89.6%
same,"viability, T/C",[33],101%
same,"viability, T/C",[34],104%
same,"viability, T/C",[35],92.5%
same,"viability, T/C",[36],108%
CC[C@@]1(O)C(=O)OCc2c1cc1n(c2=O)Cc2cc3c(CN(C)C)c(O)ccc3nc2-1 + Cc1[nH]c2ccc(F)cc2c1-c1nc2c3cccnc3c3ncccc3c2[nH]1,IC50,second compound 0.0316 µM,53.9 nM
same,IC50,second compound 0.1 µM,61.5 nM
same,IC50,second compound 0.316 µM,55.9 nM
same,IC50,second compound 1 µM,60.7 nM
same,IC50,second compound 3.16 µM,46.5 nM
same,IC50,second compound 10 µM,24.5 nM
same,"viability, T/C",[37],97.6%
same,"viability, T/C",[38],92%
same,"viability, T/C",[39],83%
same,"viability, T/C",[1],72.3%
same,"viability, T/C",[40],25%
same,"viability, T/C",[3],14.7%
same,"viability, T/C",[41],106%
same,"viability, T/C",[42],91.9%
same,"viability, T/C",[43],91.2%
same,"viability, T/C",[7],87.6%
same,"viability, T/C",[44],22.5%
same,"viability, T/C",[9],17.7%
same,"viability, T/C",[45],96.9%
same,"viability, T/C",[46],97.9%
same,"viability, T/C",[47],90.9%
same,"viability, T/C",[13],75.7%
same,"viability, T/C",[48],24.1%
same,"viability, T/C",[15],9.9%
same,"viability, T/C",[49],98.8%
same,"viability, T/C",[50],96.6%
same,"viability, T/C",[51],108%
same,"viability, T/C",[19],74.4%
same,"viability, T/C",[52],30.9%
same,"viability, T/C",[21],9.35%
same,"viability, T/C",[53],97.6%
same,"viability, T/C",[54],100%
same,"viability, T/C",[55],80.4%
same,"viability, T/C",[25],64.6%
same,"viability, T/C",[56],26.2%
same,"viability, T/C",[27],9.6%
same,"viability, T/C",[57],63.8%
same,"viability, T/C",[58],69.1%
same,"viability, T/C",[59],84%
same,"viability, T/C",[31],43.7%
same,"viability, T/C",[60],18.7%
same,"viability, T/C",[33],8.82%
CCc1c2c(nc3ccc(O)cc13)-c1cc3c(c(=O)n1C2)COC(=O)[C@]3(O)CC + Cc1[nH]c2ccc(F)cc2c1-c1nc2c3cccnc3c3ncccc3c2[nH]1,IC50,second compound 0.0316 µM,1.69 nM
same,IC50,second compound 0.1 µM,1.59 nM
same,IC50,second compound 0.316 µM,1.51 nM
same,IC50,second compound 1 µM,1.76 nM
same,IC50,second compound 3.16 µM,1.46 nM
same,IC50,second compound 10 µM,< 0.999 nM
same,"viability, T/C",[37],71.4%
same,"viability, T/C",[38],23.9%
same,"viability, T/C",[39],12.8%
same,"viability, T/C",[1],8.37%
same,"viability, T/C",[40],6.91%
same,"viability, T/C",[3],4.31%
same,"viability, T/C",[41],70.2%
same,"viability, T/C",[42],19.9%
same,"viability, T/C",[43],8.9%
same,"viability, T/C",[7],10%
same,"viability, T/C",[44],7.96%
same,"viability, T/C",[9],3.98%
same,"viability, T/C",[45],66.7%
same,"viability, T/C",[46],18.4%
same,"viability, T/C",[47],16.5%
same,"viability, T/C",[13],8.55%
same,"viability, T/C",[48],6.58%
same,"viability, T/C",[15],4.87%
same,"viability, T/C",[49],75.8%
same,"viability, T/C",[50],22.1%
same,"viability, T/C",[51],14.6%
same,"viability, T/C",[19],9.41%
same,"viability, T/C",[52],6.65%
same,"viability, T/C",[21],5.39%
same,"viability, T/C",[53],65.4%
same,"viability, T/C",[54],18.1%
same,"viability, T/C",[55],8.2%
same,"viability, T/C",[25],8.72%
same,"viability, T/C",[56],6.44%
same,"viability, T/C",[27],4.32%
same,"viability, T/C",[57],37.7%
same,"viability, T/C",[58],14.2%
same,"viability, T/C",[59],9.41%
same,"viability, T/C",[31],9.06%
same,"viability, T/C",[60],5.65%
same,"viability, T/C",[33],7.19%
